Data taken from patent US8280710B2, “Method for determining thermal stability of collagen or collagen-like peptide” (University of Medicine and Dentistry of New Jersey, priority 2005, dated 2012).
Non-standard residues stand in square brackets, D forms with d. Residues, ends and D or L forms follow the SMILES beside them. No end group written: not given here. Hyp = O=C(O)[C@@H]1C[C@@H](O)CN1

Tests used:
[1] = for Tm^obs: peptide of Table 3, defined standard conditions; for experimentally observed Tm of Gly-Xaa1-Xaa2 tripeptide unit in a triple helix: host-guest peptide, (Gly-Pro-Hyp)8 host, c=1 mg/ml in phosphate-buffered saline, pH 7.0, heating rate 0.1° C./minute
Protocol: The propensity measurements for all 20 amino acid residues in the Xaa1 position in a Gly-Xaa1-Hyp context and all 20 amino acid residues in the Xaa2 position in a Gly-Pro-Xaa2 context were determined by measuring thermal stability of host-guest peptides (Persikov, et al. (2000) supra).
The Tm values of all host-guest peptides were measured under a set of standard conditions, with c=1 mg/ml in phosphate-buffered saline, pH 7.0, and with a heating rate average of 0.1° C./minute (Persikov, et al. (2004) supra).

[2] = Method for predicting global Tm of collagen peptides from amino acid sequence; settings: observed minus predicted, peptides of Table 3
Protocol: The global thermal stability of homotrimeric triple helical peptides with length of at least 6 tripeptide units and, in most cases, containing 10 tripeptide units was determined as follows.
For the total number of triplets n in a given peptide, the base Tm^0(n) for (Pro-Hyp-Gly) or (Pro-Pro-Gly)n was calculated from the length dependence (Equation 1), including any effect of blocking groups;
The melting temperature value was decreased for every triplet in the sequence that was not Gly-Pro-Hyp, subtracting a value of ΔTm^GXY (Table 1). The N-terminal and C-terminal tripeptide units were excluded from the calculation due to the staggering of the chains and the disorder for the peptide ends (Bella et al. (1994) supra; Li, et al. (1993) Biochemistry 32:7377-7387; Kramer, et al. (2001) J. Mol. Biol. 301:1191-1205).
The resulting value for the peptide melting temperature was adjusted using the ΔTm^int values for interactions between neighboring tripeptides (Table 2).
The method was formulated as follows.
To extrapolate the dependence of the Tm of the host peptides on peptide length, the experimental values for (Pro-Hyp-Gly)n and (Pro-Pro-Gly)n versus n, where n is the number of tripeptide units, were fit to the exponential decay function
[formula] where Tm^0(n) is defined as the base thermal stability of the repeating polytripeptide standard, Tm^max is the maximum melting temperature, and the constant n0 represents the length of the repeating peptide with Tm=0.

Molecule	experimentally observed Tm of Gly-Xaa1-Xaa2 tripeptide unit in a triple helix [1]	also measured
CC(=O)NCC(=O)N1CCC[C@H]1C(=O)N1C[C@H](O)C[C@H]1C(=O)NCC(=O)N1CCC[C@H]1C(=O)N1C[C@H](O)C[C@H]1C(=O)NCC(=O)N[C@@H](CCCNC(=N)N)C(=O)N1C[C@H](O)C[C@H]1C(=O)NCC(=O)N[C@@H](CCCCN)C(=O)N[C@@H](CCCNC(=N)N)C(=O)NCC(=O)N[C@@H](CCCCN)C(=O)N[C@@H](CCC(N)=O)C(=O)NCC(=O)N[C@@H](CCC(N)=O)C(=O)N[C@@H](CCCCN)C(=O)NCC(=O)N1CCC[C@H]1C(=O)N1C[C@H](O)C[C@H]1C(=O)NCC(=O)N1CCC[C@H]1C(=O)N1C[C@H](O)C[C@H]1C(=O)NCC(=O)NCC(N)=O [AchE-HG-C4, Ac-GPO-GPO-GRO-GKR-GKQ-GQK-GPO-GPO-GG-NH2] (Ac-GP[Hyp]GP[Hyp]GR[Hyp]GKRGKQGQKGP[Hyp]GP[Hyp]GG-NH2)	–	Tm^obs [1]: 8.1 °C; ΔTm [2]: −1.2 °C
CC(=O)NCC(=O)N[C@@H](C)C(=O)N[C@@H](CCCNC(=N)N)C(=O)NCC(=O)N1CCC[C@H]1C(=O)N[C@@H](C)C(=O)NCC(=O)N1CCC[C@H]1C(=O)N[C@@H](CCC(N)=O)C(=O)NCC(=O)N1CCC[C@H]1C(=O)N[C@@H](CCCNC(=N)N)C(=O)NCC(=O)N[C@@H](CC(=O)O)C(=O)N[C@@H](CCCCN)C(=O)NCC(=O)N[C@@H](CCC(=O)O)C(=O)N[C@H](C(=O)NCC(=O)N1CCC[C@H]1C(=O)N1C[C@H](O)C[C@H]1C(=O)NCC(=O)N1CCC[C@H]1C(=O)N1C[C@H](O)C[C@H]1C(=O)NCC(=O)N1CCC[C@H]1C(=O)N1C[C@H](O)C[C@H]1C(=O)NCC(=O)N1CCC[C@H]1C(=O)N1C[C@H](O)C[C@H]1C(=O)NCC(=O)N[C@H](C(N)=O)C(C)C)[C@@H](C)O [T1-904, Ac-GAR-GPA-GPQ-GPR-GDK-GET-(GPO)4-GV-NH2] (Ac-GARGPAGPQGPRGDKGETGP[Hyp]GP[Hyp]GP[Hyp]GP[Hyp]GV-NH2)	–	Tm^obs [1]: 30.8 °C
Gly-Pro-Glu	39.7 °C	–
Gly-Pro-Gln	41.3 °C	–
Gly-Pro-[Hyp]	–	decrease in stability relative to Gly-Pro-Hyp [1]: 21 °C
Gly-Pro-Arg	47.2 °C	decrease in stability relative to Gly-Pro-Hyp [1]: ~0 °C
CC(=O)NCC(=O)N1CCC[C@H]1C(=O)N1C[C@H](O)C[C@H]1C(=O)NCC(=O)N1CCC[C@H]1C(=O)N1C[C@H](O)C[C@H]1C(=O)NCC(=O)N1CCC[C@H]1C(=O)N1C[C@H](O)C[C@H]1C(=O)NCC(=O)N1CCC[C@H]1C(=O)N1C[C@H](O)C[C@H]1C(=O)NCC(=O)N1CCC[C@H]1C(=O)N[C@@H](C)C(=O)NCC(=O)N1CCC[C@H]1C(=O)N[C@@H](C)C(=O)NCC(=O)N1CCC[C@H]1C(=O)N[C@H](C(=O)NCC(=O)N1CCC[C@H]1C(=O)N[C@@H](C)C(=O)NCC(=O)N[C@@H](C)C(=O)N[C@@H](CCCNC(=N)N)C(=O)NCC(=O)N1CCC[C@H]1C(=O)N[C@@H](C)C(=O)NCC(=O)N[C@H](C(N)=O)C(C)C)C(C)C [T1-892r, Ac-(GPO)4-GPA-GPA-GPV-GPA-GAR-GPA-GV-NH2] (Ac-GP[Hyp]GP[Hyp]GP[Hyp]GP[Hyp]GPAGPAGPVGPAGARGPAGV-NH2)	–	ΔTm [2]: −2.2 °C
CC(=O)NCC(=O)N[C@@H](CCC(=O)O)C(=O)N[C@@H](CCCNC(=N)N)C(=O)NCC(=O)N[C@@H](CCC(=O)O)C(=O)N[C@@H](CCCNC(=N)N)C(=O)NCC(=O)N[C@@H](CCC(=O)O)C(=O)N[C@@H](CCCCN)C(=O)NCC(=O)N[C@@H](CCC(=O)O)C(=O)N[C@@H](CCCNC(=N)N)C(=O)NCC(=O)N[C@@H](CCC(=O)O)C(=O)N[C@@H](CCC(N)=O)C(=O)NCC(=O)N[C@@H](CCCNC(=N)N)C(=O)N[C@@H](CC(=O)O)C(=O)NCC(=O)N1CCC[C@H]1C(=O)N1C[C@H](O)C[C@H]1C(=O)NCC(=O)N1CCC[C@H]1C(=O)N1C[C@H](O)C[C@H]1C(=O)NCC(=O)N1CCC[C@H]1C(=O)N1C[C@H](O)C[C@H]1C(=O)NCC(=O)N1CCC[C@H]1C(=O)N1C[C@H](O)C[C@H]1C(=O)NCC(=O)N[C@H](C(N)=O)C(C)C [T7-2058, Ac-GER-GER-GEK-GER-GEQ-GRD-(GPO)4-GV-NH2] (Ac-GERGERGEKGERGEQGRDGP[Hyp]GP[Hyp]GP[Hyp]GP[Hyp]GV-NH2)	–	Tm^obs [1]: 23.2 °C
Gly-Ala-[Hyp]	41.7 °C	–
Gly-Pro-Gly	32.9 °C	–
CC[C@H](C)[C@H](NC(=O)CNC(=O)[C@H](CO)NC(=O)[C@@H]1CCCN1C(=O)CNC(=O)[C@@H]1C[C@@H](O)CN1C(=O)[C@@H]1CCCN1C(=O)CNC(=O)[C@@H](NC(=O)[C@H](CCCNC(=N)N)NC(=O)CNC(=O)[C@H](C)NC(=O)[C@H](C)NC(=O)CNC(=O)[C@@H]1C[C@@H](O)CN1C(=O)[C@H](Cc1ccccc1)NC(=O)CNC(C)=O)[C@@H](C)O)C(=O)N[C@@H](CO)C(=O)NCC(=O)N1CCC[C@H]1C(=O)N1C[C@H](O)C[C@H]1C(=O)NCC(=O)N1CCC[C@H]1C(=O)N1C[C@H](O)C[C@H]1C(=O)NCC(=O)N1CCC[C@H]1C(=O)N1C[C@H](O)C[C@H]1C(=O)NCC(=O)N1CCC[C@H]1C(=O)N1C[C@H](O)C[C@H]1C(=O)NCC(=O)N[C@H](C(N)=O)C(C)C [T1A2-697, Ac-GFO-GAA-GRT-GPO-GPS-GIS-(GPO)4-GV-NH2] (Ac-GF[Hyp]GAAGRTGP[Hyp]GPSGISGP[Hyp]GP[Hyp]GP[Hyp]GP[Hyp]GV-NH2)	–	Tm^obs [1]: <4 °C
Gly-Gly-Phe	19.7 °C	–
Gly-Gly-Ala	26.0 °C	–
MBL: MBL peptide(s) of Table 3 containing Gly-Lys-Asp-Gly-Arg-Asp-Gly-Thr-Lys-Gly-Glu-Lys-Gly-Glu-Hyp; not said whether MBL 42-61 or 45-61 (GKDGRDGTKGEKGEP)	–	ΔTm [2]: higher than observed
CC(=O)NCC(=O)N1CCC[C@H]1C(=O)N[C@@H](CCCNC(=N)N)C(=O)NCC(=O)N[C@@H](CC(N)=O)C(=O)N[C@@H](CCCNC(=N)N)C(=O)NCC(=O)N[C@@H](CCC(=O)O)C(=O)N[C@@H](CCCNC(=N)N)C(=O)NCC(=O)N[C@@H](CO)C(=O)N[C@@H](CCC(=O)O)C(=O)NCC(=O)N[C@@H](CO)C(=O)N1C[C@H](O)C[C@H]1C(=O)NCC(=O)N[C@@H](Cc1c[nH]cn1)C(=O)N1C[C@H](O)C[C@H]1C(=O)NCC(=O)N[C@@H](CCC(N)=O)C(=O)N1C[C@H](O)C[C@H]1C(=O)NCC(=O)N1CCC[C@H]1C(=O)N1C[C@H](O)C[C@H]1C(=O)NCC(=O)N1CCC[C@H]1C(=O)N1C[C@H](O)C[C@H]1C(=O)NCC(=O)N[C@@H](C)C(=O)N1C[C@H](O)C[C@H]1C(=O)NCC(=O)N[C@H](C(N)=O)C(C)C [T3-997, Ac-GPR-GNR-GER-GSE-GSO-GHO-GQO-GPO-GPO-GAO-GV-NH2] (Ac-GPRGNRGERGSEGS[Hyp]GH[Hyp]GQ[Hyp]GP[Hyp]GP[Hyp]GA[Hyp]GV-NH2)	–	Tm^obs [1]: <4 °C
Gly-Pro-Ala	40.9 °C	decrease in stability relative to Gly-Pro-Hyp [1]: 6.4 °C
CC[C@H](C)[C@H](NC(=O)CNC(=O)[C@H](CC(C)C)NC(=O)[C@@H]1CCCN1C(=O)CNC(=O)[C@@H]1C[C@@H](O)CN1C(=O)[C@H](C)NC(=O)CNC(=O)[C@@H]1C[C@@H](O)CN1C(=O)[C@@H]1CCCN1C(=O)CNC(C)=O)C(=O)N[C@@H](C)C(=O)NCC(=O)N[C@H](C(=O)N[C@H](C(=O)NCC(=O)N[C@@H](C)C(=O)N[C@@H](CCCNC(=N)N)C(=O)NCC(=O)N[C@@H](CC(C)C)C(=O)N[C@@H](C)C(=O)NCC(=O)N1CCC[C@H]1C(=O)N1C[C@H](O)C[C@H]1C(=O)NCC(=O)N1CCC[C@H]1C(=O)N1C[C@H](O)C[C@H]1C(=O)NCC(=O)N1CCC[C@H]1C(=O)N1C[C@H](O)C[C@H]1C(=O)NCC(=O)N1CCC[C@H]1C(=O)N1C[C@H](O)C[C@H]1C(=O)NCC(=O)NCC(N)=O)[C@@H](C)O)[C@@H](C)CC [T3-772, Ac-GPO-GAO-GPL-GIA-GIT-GAR-GLA-(GPO)4-GG-NH2] (Ac-GP[Hyp]GA[Hyp]GPLGIAGITGARGLAGP[Hyp]GP[Hyp]GP[Hyp]GP[Hyp]GG-NH2)	–	Tm^obs [1]: <4 °C

The next lines start with results.

experimentally observed Tm of Gly-Xaa1-Xaa2 tripeptide unit in a triple helix [1]	Molecule	also measured
45.5 °C	Gly-Pro-Pro	–
36.8 °C	Gly-Pro-Lys	–
35.0 °C	Gly-Pro-Ser	–
40.0 °C	Gly-Pro-Val	–
